The source of these data is ChEMBL document CHEMBL1201862, “PubChem BioAssay data set” (2004).

Test systems include COLO 205; 786-0; MOLT-4; SF-295; SK-MEL-28; SNB-75; IGROV-1; SK-MEL-2; SK-MEL-5; HCT-15; UO-31; T47D; ACHN; MCF7; DU-145; MDA-N; HCC 2998; RXF 393; MDA-MB-231.
Common to all, as to test: NCI tumour cell line growth inhibition, 48 h

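All cell lines were grown in 96-well plates and treated with compound for 48 hours. GI50 = concentration required for 50% inhibition of growth.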 The source made the active and inactive calls. Cut-off read from the data, not from the text of the source: active = GI50 up to about 1.1 µM and inactive = higher. Some results are limits rather than exact numbers.

Regarding `O=C(c1cscc1CCc1ccccc1)c1cscc1CCc1ccccc1`, the GI50 in the experiment on COLO 205, in the experiment on 786-0, with MOLT-4, in the experiment with SF-295, in the experiment with SK-MEL-28 and with SNB-75 was > 100 µM (inactive) in each case. The GI50 in the experiment with IGROV-1 is 31.6 µM (inactive); with SK-MEL-2, > 100 µM (inactive); in the experiment with SK-MEL-5, > 100 µM (inactive); in the experiment on HCT-15, above 100 µM; in the experiment with UO-31, > 100 µM (inactive); in the experiment with T47D it was 11.6 µM (inactive). The GI50 in the experiment on ACHN, in the experiment on MCF7, in the experiment with DU-145, with MDA-N, with HCC 2998 and in the experiment on RXF 393 was > 100 µM (inactive) in each case. Moreover, the GI50 with MDA-MB-231 was > 100 µM (inactive).

Consider `CN(C)c1cccc(NC2=NCCO2)c1`, for which the GI50 in the experiment on COLO 205 was 20.6 µM (inactive); in the experiment on 786-0, 46.6 µM (inactive); in the experiment with MOLT-4 it was 46.7 µM (inactive); with SF-295 it was > 100 µM (inactive); in the experiment with SK-MEL-28, 42.8 µM (inactive); in the experiment with SNB-75, 41.2 µM (inactive). For the same compound, the GI50 in the experiment with IGROV-1 was > 100 µM (inactive); in the experiment with SK-MEL-2, 14.9 µM (inactive); with SK-MEL-5, 43.6 µM (inactive); in the experiment with HCT-15, 45.1 µM; with UO-31, > 100 µM (inactive); with T47D, 69.2 µM (inactive). In addition, the GI50 was 90.4 µM (inactive) in the experiment with ACHN; 50.5 µM (inactive) in the experiment on MCF7; > 100 µM (inactive) in the experiment with DU-145; 17.5 µM (inactive) in the experiment with MDA-N; 89.9 µM (inactive) in the experiment with HCC 2998; > 100 µM (inactive) in the experiment on RXF 393. Besides, the GI50 in the experiment with MDA-MB-231 was 51.4 µM (inactive).

Take `O=C1c2cccc([N+](=O)[O-])c2C(=O)N1Cc1ccccc1`: the GI50 in the experiment with COLO 205, with 786-0, in the experiment with MOLT-4, in the experiment on SF-295, in the experiment with SK-MEL-28 and in the experiment with SNB-75 was > 100 µM (inactive) in each case. Also, the GI50 with IGROV-1 is > 100 µM (inactive); in the experiment with SK-MEL-2 it was > 100 µM (inactive); in the experiment with SK-MEL-5 it was > 100 µM (inactive); in the experiment on HCT-15, above 100 µM; in the experiment with UO-31 it was > 100 µM (inactive); in the experiment with T47D, > 100 µM (inactive). Further, the GI50 with ACHN, in the experiment with MCF7, in the experiment on DU-145, with MDA-N, with HCC 2998 and with RXF 393 was > 100 µM (inactive) in each case. Further, in the experiment with MDA-MB-231, the GI50 was > 100 µM (inactive).

Turning to `Cn1cnc([N+](=O)[O-])c1Sc1nc(N)nc2c1ncn2[C@H]1C[C@H](O)[C@@H](CO)O1`, the GI50 in the experiment on COLO 205 is 4.63 µM (inactive); in the experiment on 786-0, 3.86 µM (inactive); in the experiment with MOLT-4 it was 2.43 µM (inactive); with SF-295, 3.11 µM (inactive); in the experiment on SK-MEL-28, 14.5 µM (inactive); in the experiment on SNB-75, 5.68 µM (inactive). In addition, the GI50 in the experiment with IGROV-1 is 5.13 µM (inactive); in the experiment on SK-MEL-2, 2.45 µM (inactive); in the experiment on SK-MEL-5, 4.08 µM (inactive); with HCT-15, 4.17 µM; in the experiment with UO-31, 3.43 µM (inactive); in the experiment on T47D, 7.52 µM (inactive). Moreover, the GI50 is 3.52 µM (inactive) in the experiment on ACHN; 2.61 µM (inactive) in the experiment on MCF7; 1.21 µM (inactive) in the experiment with DU-145; 4.36 µM (inactive) with MDA-N; 13.8 µM (inactive) in the experiment with HCC 2998; 8.32 µM (inactive) in the experiment with RXF 393. The GI50 in the experiment on MDA-MB-231 is 3.36 µM (inactive).

In the case of `COc1cccc(C2SC(=N)Nc3c2c(C)nn3C(=O)c2ccccc2O)c1` (centres undefined), the GI50 with COLO 205 is > 6.4 µM (inactive); in the experiment with 786-0, > 3.79 µM (inactive); in the experiment with MOLT-4, > 2.44 µM (inactive); in the experiment on SF-295, 3.2 µM (inactive); with SK-MEL-28, > 10 µM (inactive); in the experiment with SNB-75 it was 0.925 µM (active). For the same compound, the GI50 with IGROV-1 is > 2.11 µM (inactive); in the experiment on SK-MEL-2, > 7.23 µM (inactive); in the experiment with SK-MEL-5 it was > 6.53 µM (inactive); in the experiment with HCT-15, above 5.7 µM; in the experiment with UO-31 it was > 10 µM (inactive); with T47D, > 7.03 µM (inactive). Further, the GI50 in the experiment on ACHN is 1.77 µM (inactive); in the experiment with MCF7, > 3.11 µM (inactive); in the experiment with DU-145 it was > 2.44 µM (inactive); with MDA-N, > 2.28 µM (inactive); in the experiment with HCC 2998, > 10 µM (inactive); with RXF 393, 2.14 µM (inactive). In addition, the GI50 with MDA-MB-231 was > 4.62 µM (inactive).

With `CCNc1cc2c3c(c1)CCCN3CCC2`, the GI50 in the experiment with COLO 205 was 12.1 µM (inactive); in the experiment with 786-0, 9.66 µM (inactive); in the experiment on MOLT-4 it was 16.9 µM (inactive); with SF-295, 18.2 µM (inactive); in the experiment with SK-MEL-28, 31.3 µM (inactive); in the experiment on SNB-75, 18.1 µM (inactive). Besides, the GI50 was 15.6 µM (inactive) in the experiment on IGROV-1; 15.3 µM (inactive) in the experiment on SK-MEL-2; 13.7 µM (inactive) in the experiment with SK-MEL-5; 19.6 µM with HCT-15; 41.9 µM (inactive) with UO-31; 18.1 µM (inactive) with T47D. For the same compound, the GI50 was 19.6 µM (inactive) in the experiment with ACHN; 40.7 µM (inactive) in the experiment on MCF7; 28.1 µM (inactive) in the experiment on DU-145; 3.1 µM (inactive) with MDA-N; 33 µM (inactive) with HCC 2998; 72.8 µM (inactive) in the experiment on RXF 393. Besides, the GI50 with MDA-MB-231 is 6.93 µM (inactive).

Consider `CC1(C)N=C(/C=N/O)C(C)(C)N1O`, for which the GI50 in the experiment with COLO 205, with 786-0, with MOLT-4, in the experiment on SF-295, with SK-MEL-28 and with SNB-75 was > 100 µM (inactive) throughout. Moreover, the GI50 in the experiment with IGROV-1 was > 100 µM (inactive); in the experiment on SK-MEL-2 it was > 100 µM (inactive); in the experiment on SK-MEL-5 it was > 100 µM (inactive); with HCT-15 it was above 100 µM; in the experiment on UO-31, 81.3 µM (inactive); with T47D it was > 100 µM (inactive). Moreover, the GI50 in the experiment on ACHN, in the experiment on MCF7, in the experiment with DU-145, with MDA-N, in the experiment on HCC 2998 and in the experiment with RXF 393 was > 100 µM (inactive) each time. In addition, the GI50 with MDA-MB-231 was > 100 µM (inactive).

Take `COc1ccc(N2CN3OC(=O)N(c4ccc(OC)cc4)[C@@]3(c3ccccc3)C2)cc1`: the GI50 in the experiment with COLO 205 was 13.4 µM (inactive); in the experiment with 786-0 it was 51.1 µM (inactive); in the experiment with MOLT-4, 7.23 µM (inactive); with SF-295, 16.5 µM (inactive); in the experiment on SK-MEL-28, 34.5 µM (inactive); in the experiment with SNB-75, 14.4 µM (inactive). Also, the GI50 is 20.7 µM (inactive) with IGROV-1; 5.51 µM (inactive) with SK-MEL-2; 11.9 µM (inactive) in the experiment with SK-MEL-5; 5.18 µM in the experiment with HCT-15; 32.9 µM (inactive) in the experiment with UO-31; 14.3 µM (inactive) in the experiment with T47D. The GI50 in the experiment with ACHN is 61.9 µM (inactive); in the experiment with MCF7, 16.9 µM (inactive); with DU-145, 81.5 µM (inactive); with MDA-N it was 3.29 µM (inactive); in the experiment on HCC 2998, 11.5 µM (inactive); with RXF 393 it was 19.9 µM (inactive). In addition, the GI50 with MDA-MB-231 is 10 µM (inactive).

Turning to `N=C(N)NCC1CCCCCCN1` (centres undefined), the GI50 in the experiment with COLO 205, with 786-0, with MOLT-4, in the experiment with SF-295, in the experiment with SK-MEL-28 and in the experiment with SNB-75 was > 100 µM (inactive) each time. Besides, the GI50 in the experiment with IGROV-1 is > 100 µM (inactive); with SK-MEL-2, > 100 µM (inactive); in the experiment on SK-MEL-5, > 100 µM (inactive); in the experiment with HCT-15, above 100 µM; in the experiment on UO-31, > 100 µM (inactive); with T47D, > 100 µM (inactive). In addition, the GI50 with ACHN, with MCF7, in the experiment on DU-145, in the experiment on MDA-N, in the experiment on HCC 2998 and in the experiment on RXF 393 was > 100 µM (inactive) in each case. Besides, the GI50 in the experiment with MDA-MB-231 was > 100 µM (inactive).

Regarding `N=C(N)NS(=O)(=O)c1ccc(NC(=O)c2ccc3nc4ccccc4c(Nc4ccc(S(N)(=O)=O)cc4)c3c2)cc1`, the GI50 in the experiment with COLO 205, in the experiment on 786-0, in the experiment with MOLT-4, in the experiment with SF-295, with SK-MEL-28 and in the experiment on SNB-75 was > 100 µM (inactive) throughout. Further, the GI50 is > 100 µM (inactive) with IGROV-1; > 100 µM (inactive) in the experiment on SK-MEL-2; > 100 µM (inactive) with SK-MEL-5; above 100 µM with HCT-15; > 100 µM (inactive) with UO-31; > 100 µM (inactive) with T47D. For the same compound, the GI50 in the experiment with ACHN, with MCF7, in the experiment with DU-145, in the experiment with MDA-N, with HCC 2998 and in the experiment with RXF 393 was > 100 µM (inactive) throughout. Moreover, in the experiment on MDA-MB-231, the GI50 is > 100 µM (inactive).

Take `COC(=O)c1ccc2cc(O)c(O)cc2c1`: the GI50 is 37.9 µM (inactive) in the experiment on COLO 205; 41.8 µM (inactive) in the experiment with 786-0; 15.5 µM (inactive) in the experiment with MOLT-4; 38.3 µM (inactive) in the experiment with SF-295; 46.9 µM (inactive) with SK-MEL-28; 90.8 µM (inactive) in the experiment with SNB-75. The GI50 was 26.7 µM (inactive) with IGROV-1; 39.5 µM (inactive) with SK-MEL-2; 22.1 µM (inactive) with SK-MEL-5; 33 µM with HCT-15; 17.4 µM (inactive) in the experiment on UO-31; 25.8 µM (inactive) in the experiment on T47D. Besides, the GI50 with ACHN is 32.7 µM (inactive); in the experiment on MCF7 it was 42.9 µM (inactive); in the experiment on DU-145, 53.2 µM (inactive); with MDA-N it was 45 µM (inactive); with HCC 2998 it was > 68.9 µM (inactive); in the experiment with RXF 393, 48.2 µM (inactive). Moreover, in the experiment on MDA-MB-231, the GI50 was 60.7 µM (inactive).
